# Assay results from the METLIN SMRT retention time set (Domingo-Almenara et al. 2019).
# Assay: gradient 5% acetonitrile 3 min, to 50% in 2 min, to 85% in 15 min, held 3 min, 100 µL/min
# Conditions: column: Zorbax Extend-C18 2.1 x 50 mm; eluents: water / acetonitrile, 0.1% formic acid
# Method in brief: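 Using water and acetonitrile that each contained 0.1% formic acid, mixtures of ~100 pure standards were separated at 100 μL/min on a Zorbax Extend-C18 column (2.1 × 50 mm, 1.8 μm). The HPLC fed a quadrupole time-of-flight mass spectrometer working in positive and negative ionization mode, with dead and dwell volumes of 40 μL and 900 μL. Data were acquired over 3 months. Retention time was read from computationally picked adduct peaks after manual inspection of each.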
row,RP-LC retention time,Structure (SMILES)
1,554 s,Cc1nc(C2CCCN2Cc2ccc(C)s2)n[nH]1 (stereo not drawn)
2,688 s,COCCNC(=O)N1CCCN(C2=NS(=O)(=O)C(c3ccc(C)cc3)=C2C)CC1
3,886 s,Cc1oc(C2CCN(C(=O)Cc3c(F)cccc3Cl)CC2)nc1C(=O)N1CCCCC1
4,717 s,O=C(Cn1cc(-c2ccccc2)c2ncnc(N3CCOCC3)c21)N1CCN(c2ccccc2)CC1
5,803 s,CCn1cc(C(=O)N2CCc3ccccc32)c2nn(-c3ccccc3)c(=O)c-2c1
6,994 s,COc1cc2c(cc1OC)C(C(=O)NC1CCCCC1)C(c1cccnc1)N(C)C2=O (stereo not drawn)
7,704 s,Cc1ccc(CC(=O)N2CCN(c3cc(-c4ccc(C)cc4)ncn3)CC2)cc1
8,626 s,Cn1c(=O)c2c(C(=O)NCC3CCN(Cc4ccc(Cl)cc4)CC3)cc(=O)n(C)c2n(C)c1=O
9,855 s,CC(NC(=O)C1=C2CCCN2c2ccccc2S1(=O)=O)c1ccccc1 (stereo not drawn)
10,890 s,O=C(c1cc(F)ccc1F)N1CCC2(CC1)NC(=O)N(Cc1ccc(Cl)cc1)C2=O
11,1270 s,O=c1c2sccc2n(Cc2nc(-c3ccc(C(F)(F)F)cc3)no2)c(=O)n1CCc1ccccc1
12,926 s,O=C(Nc1ccc2c(c1)N(S(=O)(=O)c1ccccc1)CCC2)c1ccccc1[N+](=O)[O-]
13,631 s,COc1ccc(CCNc2nc3ccncc3n(C(C)C)c2=O)cc1OC
14,667 s,COc1ccc(C(=O)Nc2cccn3c(C)nnc23)cc1F
15,880 s,Cc1ccc(-c2ncc(C(=O)Nc3ccc4c(c3)OCCO4)c(-c3ccncc3)n2)cc1
16,747 s,O=C(NCC1CC1)C1CCN(c2nc3ccsc3c(=O)n2-c2ccccc2)CC1
17,872 s,CCC1Oc2ccc(S(=O)(=O)N3CCC(C(=O)NCCc4ccccc4)CC3)cc2NC1=O (stereo not drawn)
18,1230 s,CC(C)c1nnc(-c2sccc2NC(=O)C2CCC2)o1
19,673 s,CCCN(C)c1nccn2c(=O)n(CC(=O)Nc3ccc(F)cc3F)nc12
20,650 s,Cc1ccc(-c2cc3c4nnc(CCC(=O)N5CCN(c6ccccn6)CC5)n4ccn3n2)cc1C
21,623 s,Cc1ccc(-c2ccc(N3CCN(c4ccccn4)CC3)nn2)cc1S(=O)(=O)N1CCOCC1
22,666 s,O=C(Cc1c[nH]c2ncccc12)NCc1ccc(Br)cc1

row,RP-LC retention time,Structure (SMILES)
1,786 s,CCOC(=O)c1c(N)ssc1=S
2,662 s,CC(C)CCN1CCC(N2CCN(S(=O)(=O)c3ccc(F)cc3)CC2)C1=O (stereo not drawn)
3,662 s,O=C1Nc2ccc(S(=O)(=O)N3CCN(c4ccccn4)CC3)cc2C1=C1CCCC1
4,805 s,Cc1nc(CC(=O)NCc2ccc(C(F)(F)F)cc2)sc1C(=O)NCc1ccccc1
5,894 s,COc1ccccc1NC(=O)N1CCCC1c1nc(-c2ccccc2OC)no1 (stereo not drawn)
6,687 s,O=C1c2c(O)cc(O)cc2OC(c2ccc(O)c(O)c2)C1O (stereo not drawn)
7,859 s,Cc1nc(-c2csc(S(=O)(=O)N3CCC(C(=O)N4CCCCCC4)CC3)c2)no1
8,957 s,CCC(C(=O)NCCc1c[nH]c2ccc(C)cc12)n1c2ccccc2c2cnn(C)c(=O)c21 (stereo not drawn)
9,693 s,Cc1ccc(CNC(=O)c2ccc3c(c2)CC(=O)N3C)o1
10,920 s,CCc1nnc(-c2ccc(S(=O)(=O)N3CCC(C)CC3)o2)o1
11,1070 s,Cc1cccc(CNS(=O)(=O)c2c(C)sc(C)c2-c2n[nH]c(C)c2C)c1
12,1070 s,CCSc1nc2ccc(NS(=O)(=O)c3ccc(Cl)cc3)cc2s1
13,722 s,O=C(Cc1nnc2c(-c3nc(C4CC4)no3)cccn12)N1CCc2ccccc2C1
14,623 s,CCOCC(=O)N1CCC(c2nc(CNC(=O)C3CCC3)cs2)CC1
15,1210 s,CCCc1ccc(-c2csc(NC(=O)c3ccc(C)o3)n2)cc1
16,771 s,CCOC(=O)c1ccc(NC(=O)Cn2c(=O)n(CC)c(=O)c3c2cc(C)n3C)cc1
17,892 s,Cc1cc2[nH]c(C(=O)Nc3cc(Cl)ccc3F)c(CN3CCOCC3)c2s1
18,720 s,Cc1[nH]c(C)c(S(=O)(=O)N2CCC(C(=O)NC3CCCCC3)CC2)c1C(=O)N1CCCCC1
19,736 s,Cc1noc(C)c1C1CCCN1C(=O)Cc1ccccc1F (stereo not drawn)
20,778 s,COc1ccc(NC(=O)N2C[C@@H]3C[C@H]2C[C@@H]3NS(=O)(=O)c2ccccc2)cc1F
21,783 s,COc1ccc(NC(=O)C2CCN(S(=O)(=O)c3ccc4c(c3)NC(=O)C(C)O4)CC2)cc1 (stereo not drawn)
22,776 s,Cc1cccc(NC(=O)c2cnn3c2CCCC3)c1

row,RP-LC retention time,Structure (SMILES)
1,1130 s,CCN1C(=O)C2(CCN(S(=O)(=O)c3ccc(C(F)(F)F)cc3)CC2)c2ccccc21
2,802 s,COc1ccccc1-c1noc(CCn2nc(-c3ccc4c(c3)OCO4)ccc2=O)n1
3,876 s,Cc1nc(-c2cnccn2)nc2c1CCC(=O)N2CCC1=CCCCC1
4,921 s,Cc1cccc2c(=O)n(C3CCN(S(=O)(=O)c4ccccc4)CC3)cnc12
5,674 s,CCC(=O)N(C1CCOCC1)C1CCN(Cc2cn(CC)c3ccccc23)CC1
6,567 s,CN1CCc2[nH]cnc2C12CCN(C(=O)Nc1ccc(Cl)cc1F)C2 (stereo not drawn)
7,727 s,COc1ccc(-c2nc3cc(C)ccn3c2NC(=O)c2ccc(Br)cc2)cc1
8,916 s,Cc1noc(C2(NC(=O)c3cc(F)cc(F)c3)CCCCC2)n1
9,1030 s,CCC1CCCCN1C(=O)CN1CN(c2ccc(C)cc2)c2ncccc2S1(=O)=O (stereo not drawn)
10,1040 s,CCc1nn2c(nnc3c(=O)n(CCc4c[nH]c5ccccc45)ccc32)c1-c1ccc(F)cc1
11,851 s,Cn1c(=O)c2ccn(CC(=O)N3CCN(c4ccccc4F)CC3)c2n(C)c1=O
12,682 s,O=C(NCC1CCN(C(=O)Nc2ccc(F)cc2)CC1)c1ccsc1
13,740 s,C=CCNC(=O)C1CCN(C(=O)Nc2ccc(NC(=O)Nc3ccc(C)c(C)c3)cc2)CC1
14,623 s,CC(C)n1cnc2cc(CNC(=O)Cc3ccc(F)cc3)ccc21
15,758 s,COc1ccc2c(CCNC(=O)c3cc(OC)c(OC)c(OC)c3)c[nH]c2c1
16,933 s,CCc1nn(C)c(=O)c2cc(S(=O)(=O)NCc3ccc(F)c(Cl)c3)cn12
17,746 s,O=C(c1ccccc1Br)N1CCCN(C(=O)C2CC2)c2ccccc21
18,687 s,Cc1cccc(NS(=O)(=O)c2ccc3nnc(C)n3c2)c1
19,857 s,Cc1sc(-c2cc(C(F)(F)F)on2)cc1S(=O)(=O)N1CCN(C2CCCCC2)CC1
20,702 s,COc1ccc(S(=O)(=O)N2CCCC(C(=O)NC3CC3)C2)cc1OC (stereo not drawn)
21,666 s,O=C(CSc1ccc(N2CCCC(C(=O)NC3CC3)C2)nn1)NCCc1ccc(Cl)cc1 (stereo not drawn)
22,917 s,Cn1cc(S(=O)(=O)N2CCCCC2)cc1C(=O)Nc1ccc2c(c1)OCCO2

row,RP-LC retention time,Structure (SMILES)
1,926 s,CCCn1cc(S(=O)(=O)Nc2ccc(F)cc2C)c2cccnc21
2,906 s,COc1ccc(-c2nsc(SCC(=O)Nc3ccc4c(c3)OCCO4)n2)cc1
3,739 s,Cc1noc(C)c1CC(=O)N1CCCCCCNC(=O)[C@@H]2CCCC[C@@H]21
4,977 s,CCn1cc2c3c(cccc31)CN(C(=O)Nc1ccc(OC)c(Cl)c1)CC2
5,698 s,COC(=O)c1c(C)[nH]c(C(=O)N2CCCC(C(=O)NCCc3ccco3)C2)c1C (stereo not drawn)
6,578 s,O=C(N[C@@H]1CN(c2ccncn2)C[C@H]1CO)c1ccc2c(c1)OCO2
7,665 s,CC(=O)Nc1ccc(C(=O)N2CCCCCC2)o1
8,735 s,CC(C(=O)NCCN(C)Cc1ccccc1)n1c(=O)c(C(F)(F)F)nc2ccccc21 (stereo not drawn)
9,954 s,N#CCCSc1ccccc1NC(=O)c1cc2cc([N+](=O)[O-])ccc2s1
10,705 s,CC(NC(=O)C1CCN(c2cnc3nccnc3c2)CC1)c1ccccc1 (stereo not drawn)
11,837 s,Cc1ccc(N2CC(c3nc(-c4ccc5c(c4)nc(C)c(=O)n5C)no3)CC2=O)cc1 (stereo not drawn)
12,984 s,O=C(NCCc1csc(-c2ccccc2)n1)C1CCN(S(=O)(=O)c2ccc(Cl)cc2)CC1
13,638 s,CC(=O)c1ccc(NC(=O)c2[nH]c3cc(C)sc3c2CN(C)C)cc1
14,660 s,CCCc1nnc(-c2cccnc2N2CCN(C(=O)c3ccc4ncccc4c3)CC2)o1
15,821 s,CC(C)Oc1ccc(CNC(=O)C2CCN(S(=O)(=O)c3ccc4c(c3)NC(=O)CO4)CC2)cc1
16,590 s,O=C(NCCCN1CCN(c2ccccc2)CC1)c1ccc(F)cc1F
17,890 s,CCOC(=O)Nc1cccc(C(F)(F)F)c1
18,1150 s,Cc1nc(-c2cc(S(=O)(=O)NCc3ccc(OC(C)C)cc3)c(C)s2)sc1C
19,770 s,O=C(CN1C(=O)C2CCCCN2c2ccc(S(=O)(=O)N3CCCC3)cc21)NC1CC1 (stereo not drawn)
20,673 s,Cc1cccc(OCc2nc(-c3ccc4c(c3)ncn4CCN3CCCC3)no2)c1
21,752 s,O=C(Nc1ccc(F)cc1)N1CC2CN(S(=O)(=O)c3ccccc3)CC(C1)O2

row,Structure (SMILES),RP-LC retention time
1,Cc1cc(C(=O)N2CCC3(CC2)NCc2ccccc2-n2ccnc23)nn1C,576 s
